# Measured values reported in patent US20090036422A1 (priority 2007, published 2009).
# Counter-ions that a name gives are not always drawn.
# Molecular target: T1, human orexin-2 (hOX2) receptor (Homo sapiens, UniProt O43614)
# T1 construct: expressed in transfected cells
# T1 sequence (O43614 1-444): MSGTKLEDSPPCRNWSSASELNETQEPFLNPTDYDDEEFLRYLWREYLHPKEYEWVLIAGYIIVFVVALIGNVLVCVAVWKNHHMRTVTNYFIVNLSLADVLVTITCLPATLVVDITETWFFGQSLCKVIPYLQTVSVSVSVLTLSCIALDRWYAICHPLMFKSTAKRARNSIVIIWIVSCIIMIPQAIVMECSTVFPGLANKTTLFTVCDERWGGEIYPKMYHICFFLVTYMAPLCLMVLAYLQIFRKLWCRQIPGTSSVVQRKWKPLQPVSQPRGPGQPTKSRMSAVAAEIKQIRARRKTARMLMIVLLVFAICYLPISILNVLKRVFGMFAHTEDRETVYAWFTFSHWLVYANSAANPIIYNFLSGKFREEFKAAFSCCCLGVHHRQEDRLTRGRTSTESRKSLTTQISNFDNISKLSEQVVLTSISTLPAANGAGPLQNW
# Assay: Intracellular Ca2+ mobilization assay (FLIPR), CHO(dHFr-) cells expressing hOX2, orexin-A at EC80 as agonist
# Assay type: cell-based
# Conditions: Kb=IC50/(1+[A]/EC50); CHO(dHFr-)-OX2R cells, antagonist applied 25 min before orexin-A EC80
# How it was run: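 Fluo-4-loaded CHO(dHFr−) cells stably expressing hOX2 were preincubated 25 min at 37 °C with antagonist (11 concentrations, 0.0001–10 μM), then challenged with orexin-A at its daily-determined EC80. Peak fluorescence over basal read by FLIPR; IC50 from Hill fit, Kb via Kb=IC50/(1+[A]/EC50).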
row,Compound,Kb [µM]
1,"Cc1ccc(N(CCc2cccc(Cl)c2)C(=O)[C@@H](N)c2ccccc2)cc1C [Example 183, (S)-2-Amino-N-[2-(3-chloro-phenyl)-ethyl]-N-(3,4-dimethyl-phenyl)-2-phenyl-acetamide hydrochloride]",0.0496
2,"Cc1ccc(N(CCc2cccc(C(F)(F)F)c2)C(=O)[C@@H](N)c2ccccc2)cc1C [Example 184, (S)-2-Amino-N-(3,4-dimethyl-phenyl)-2-phenyl-N-[2-(3-trifluoromethyl-phenyl)-ethyl]-acetamide hydrochloride]",0.0249
3,"Cc1ccc(N(CCc2ccccc2C)C(=O)[C@@H](N)c2ccccc2)cc1C [Example 185, (S)-2-Amino-N-(3,4-dimethyl-phenyl)-2-phenyl-N-(2-o-tolyl-ethyl)-acetamide hydrochloride]",0.0305
4,"Cc1ccc(N(CCc2ccc(C(F)(F)F)c(F)c2)C(=O)[C@@H](N)c2ccccc2)cc1C [Example 186, (S)-2-Amino-N-(3,4-dimethyl-phenyl)-N-[2-(3-fluoro-4-trifluoromethyl-phenyl)-ethyl]-2-phenyl-acetamide hydrochloride]",0.0156
5,"Cc1ccc(N(CCc2ccc(F)c(C(F)(F)F)c2)C(=O)[C@@H](N)c2ccccc2)cc1C [Example 187, (S)-2-Amino-N-(3,4-dimethyl-phenyl)-N-[2-(4-fluoro-3-trifluoromethyl-phenyl)-ethyl]-2-phenyl-acetamide hydrochloride]",0.0327
6,"Cc1ccc(N(CCc2ccc(F)cc2F)C(=O)[C@@H](N)c2ccccc2)cc1C [Example 188, (S)-2-Amino-N-[2-(2,4-difluoro-phenyl)-ethyl]-N-(3,4-dimethyl-phenyl)-2-phenyl-acetamide hydrochloride]",0.0269
7,"Cc1ccc(N(CCc2ccc(F)c(F)c2)C(=O)[C@@H](N)c2ccccc2)cc1C [Example 189, (S)-2-Amino-N-[2-(3,4-difluoro-phenyl)-ethyl]-N-(3,4-dimethyl-phenyl)-2-phenyl-acetamide hydrochloride]",0.0071
8,"Cc1ccc(N(CCc2ccc(C)c(F)c2)C(=O)[C@@H](N)c2ccccc2)cc1C [Example 190, (S)-2-Amino-N-(3,4-dimethyl-phenyl)-N-[2-(3-fluoro-4-methyl-phenyl)-ethyl]-2-phenyl-acetamide hydrochloride]",0.0091
9,"Cc1ccc(N(CCc2cccc(F)c2F)C(=O)[C@@H](N)c2ccccc2)cc1C [Example 191, (S)-2-Amino-N-[2-(2,3-difluoro-phenyl)-ethyl]-N-(3,4-dimethyl-phenyl)-2-phenyl-acetamide hydrochloride]",0.0215
10,"Cc1ccc(N(CCc2ccc(Cl)cc2F)C(=O)[C@@H](N)c2ccccc2)cc1C [Example 192, (S)-2-Amino-N-[2-(4-chloro-2-fluoro-phenyl)-ethyl]-N-(3,4-dimethyl-phenyl)-2-phenyl-acetamide; hydrochloride]",0.0148
11,"Cc1ccc(N(CCc2cc(C(F)(F)F)ccc2F)C(=O)[C@@H](N)c2ccccc2)cc1C [Example 193, (S)-2-Amino-N-(3,4-dimethyl-phenyl)-N-[2-(2-fluoro-5-trifluoromethyl-phenyl)-ethyl]-2-phenyl-acetamide; hydrochloride]",0.016
12,"COc1ccccc1CCN(C(=O)[C@@H](N)c1ccccc1)c1ccc(C)c(C)c1 [Example 194, (S)-2-Amino-N-(3,4-dimethyl-phenyl)-N-[2-(2-methoxy-phenyl)-ethyl]-2-phenyl-acetamide hydrochloride]",0.0052
13,"Cc1ccc(N(CCc2cccc(C(F)(F)F)c2F)C(=O)[C@@H](N)c2ccccc2)cc1C [Example 195, (S)-2-Amino-N-(3,4-dimethyl-phenyl)-N-[2-(2-fluoro-3-trifluoromethyl-phenyl)-ethyl]-2-phenyl-acetamide hydrochloride]",0.0176
14,"Cc1ccc(N(CCc2ccc(C(F)(F)F)cc2F)C(=O)[C@@H](N)c2ccccc2)cc1C [Example 196, (S)-2-Amino-N-(3,4-dimethyl-phenyl)-N-[2-(2-fluoro-4-trifluoromethyl-phenyl)-ethyl]-2-phenyl-acetamide hydrochloride]",0.0171
15,"Cc1ccc(N(CCc2ccc(C(F)(F)F)c(F)c2F)C(=O)[C@@H](N)c2ccccc2)cc1C [Example 197, (S)-2-Amino-N-[2-(2,3-difluoro-4-trifluoromethyl-phenyl)-ethyl]-N-(3,4-dimethyl-phenyl)-2-phenyl-acetamide hydrochloride]",0.0067
16,"Cc1ccc(N(CCc2ccccc2)C(=O)[C@@H](N)c2ccccc2)cc1C [Example 199, (S)-2-Amino-N-(3,4-dimethyl-phenyl)-N-phenethyl-2-phenyl-acetamide hydrochloride]",0.0489

row,Compound,Kb [µM]
1,"Cc1ccc(N(CCc2ccc(Cl)c(F)c2)C(=O)[C@@H](N)c2ccccc2)cc1C [Example 200, (S)-2-Amino-N-[2-(4-chloro-3-fluoro-phenyl)-ethyl]-N-(3,4-dimethyl-phenyl)-2-phenyl-acetamide hydrochloride]",0.0143
2,"Cc1ccc(N(CCc2cc(F)cc(C(F)(F)F)c2)C(=O)[C@@H](N)c2ccccc2)cc1C [Example 201, (S)-2-Amino-N-(3,4-dimethyl-phenyl)-N-[2-(3-fluoro-5-trifluoromethyl-phenyl)-ethyl]-2-phenyl-acetamide hydrochloride]",0.247
3,"Cc1ccc(N(CCc2c(F)cc(C(F)(F)F)c(F)c2F)C(=O)[C@@H](N)c2ccccc2)cc1C [Example 202, (S)-2-Amino-N-(3,4-dimethyl-phenyl)-2-phenyl-N-[2-(2,3,6-trifluoro-4-trifluoromethyl-phenyl)-ethyl]-acetamide hydrochloride]",0.0015
4,"Cc1ccc(N(CCc2cc(Cl)ccc2Cl)C(=O)[C@@H](N)c2ccccc2)cc1C [Example 203, (S)-2-Amino-N-[2-(2,5-dichloro-phenyl)-ethyl]-N-(3,4-dimethyl-phenyl)-2-phenyl-acetamide hydrochloride]",0.0996
5,"Cc1ccc(N(CCc2cccc(Cl)c2F)C(=O)[C@@H](N)c2ccccc2)cc1C [Example 204, (S)-2-Amino-N-[2-(3-chloro-2-fluoro-phenyl)-ethyl]-N-(3,4-dimethyl-phenyl)-2-phenyl-acetamide hydrochloride]",0.0178
6,"Cc1ccc(N(CCc2ccc(Cl)cc2Cl)C(=O)[C@@H](N)c2ccccc2)cc1C [Example 205, (S)-2-Amino-N-[2-(2,4-dichloro-phenyl)-ethyl]-N-(3,4-dimethyl-phenyl)-2-phenyl-acetamide hydrochloride]",0.0829
7,"Cc1ccc(N(CCc2cccc(O)c2)C(=O)[C@@H](N)c2ccccc2)cc1C [Example 206, (S)-2-Amino-N-(3,4-dimethyl-phenyl)-N-[2-(3-hydroxy-phenyl)-ethyl]-2-phenyl-acetamide hydrochloride]",0.0469
8,"Cc1ccc(N(CCc2cc(F)cc(F)c2)C(=O)[C@@H](N)c2ccccc2)cc1C [Example 208, (S)-2-Amino-N-[2-(3,5-difluoro-phenyl)-ethyl]-N-(3,4-dimethyl-phenyl)-2-phenyl-acetamide hydrochloride]",0.0231
9,"Cc1ccc(N(CCc2cc(F)cc(Cl)c2)C(=O)[C@@H](N)c2ccccc2)cc1C [Example 209, (S)-2-Amino-N-[2-(3-chloro-5-fluoro-phenyl)-ethyl]-N-(3,4-dimethyl-phenyl)-2-phenyl-acetamide hydrochloride]",0.0486
10,"Cc1ccc(N(CCc2ccc(OC(F)F)cc2)C(=O)[C@@H](N)c2ccccc2)cc1C [Example 210, (S)-2-Amino-N-[2-(4-difluoromethoxy-phenyl)-ethyl]-N-(3,4-dimethyl-phenyl)-2-phenyl-acetamide hydrochloride]",0.0077
11,"Cc1ccc(N(CCc2c(F)cc(C(F)(F)F)c(F)c2F)C(=O)/C(=N/O)c2ccccc2)cc1C [Example 211, N-(3,4-Dimethyl-phenyl)-2-[hydroxyimino]-2-phenyl-N-[2-(2,3,6-trifluoro-4-trifluoromethyl-phenyl)-ethyl]-acetamide]",0.0222
12,"Cc1ccc(N(CCc2ccc(C#N)cc2)C(=O)[C@@H](N)c2ccccc2)cc1C [Example 212, (S)-2-Amino-N-[2-(4-cyano-phenyl)-ethyl]-N-(3,4-dimethyl-phenyl)-2-phenyl-acetamide hydrochloride]",0.0343
13,"Cc1ccc(N(CCc2ccc(F)c(F)c2)C(=O)C(N)c2ccc(Cl)s2)cc1C (centres unmarked) [Example 214, 2-Amino-2-(5-chloro-thiophen-2-yl)-N-[2-(3,4-difluoro-phenyl)-ethyl]-N-(3,4-dimethyl-phenyl)-acetamide hydrochloride]",0.0966
14,"Cc1ccc(N(CCc2ccc(F)c(F)c2)C(=O)C(N)c2ccsc2)cc1C (centres unmarked) [Example 216, 2-Amino-N-[2-(3,4-difluoro-phenyl)-ethyl]-N-(3,4-dimethyl-phenyl)-2-thiophen-3-yl-acetamide hydrochloride]",0.0302
15,"Cc1ccc(N(CCc2ccc(C(F)(F)F)cc2)C(=O)C(=O)c2ccccc2)cc1C [Example 218, N-(3,4-Dimethyl-phenyl)-2-oxo-2-phenyl-N-[2-(4-trifluoromethyl-phenyl)-ethyl]-acetamide]",0.0555
16,"Cc1ccc(N(CCc2ccc(C(F)(F)F)cc2)C(=O)Cn2c(C)nc3ccccc32)cc1C [Example 236, N-(3,4-Dimethyl-phenyl)-2-(2-methyl-benzoimidazol-1-yl)-N-[2-(4-trifluoromethyl-phenyl)-ethyl]-acetamide]",0.076
